Among the data in ChEMBL document CHEMBL1141505, “Conformational significance of EH21A1-A4, phenolic derivatives of geldanamycin, for Hsp90 inhibitory activity” (Bioorg Med Chem Lett, 2008) are GI50, MEC and EC50 values, retold here.

In test [1] the test system is A549. The test can be described thus: Growth inhibition of human A549 cells. It is filed as functional.
Test [2] deals with KPL4. Nature of the test: Inhibition of Hsp90 in human KPL4 cells assessed as depletion of ErbB2 level after 40 hrs. It is filed as cell-based.
For test [3], the system named is HCT-116. The test can be described thus: Growth inhibition of human HCT116 cells. It is filed as functional.
Test [4] is described as follows: Growth inhibition of human KPL4 cells. It is filed as functional.
Test [5] deals with DLD-1. The test can be described thus: Growth inhibition of human DLD1 cells. It counts as functional.
Test [6] in a line: Binding affinity at purified Hsp90 by DELFIA assay.
Test [7] concerns K562. Nature of the test: Induction of human K562 cells differentiation. It is filed as functional, cell-based.
The subject of test [8] is KPL4. Nature of the test: Inhibition of Hsp90 in human KPL4 cells assessed as depletion of Raf-1 level after 40 hrs. It counts as cell-based.

Broadly, the GI50 is the concentration giving 50% growth inhibition. Higher therefore signals lower sensitivity of the cells. For orientation: EC50 means the concentration needed to bring the measured effect to its halfway point. The low end stands for a more potent agent, the high end for a less potent agent. Turning to `CO[C@H]1C[C@H](C)Cc2cc(O)cc(c2)NC(=O)/C=C/CC[C@H](OC)[C@@H](OC(N)=O)/C(C)=C/[C@H](C)[C@H]1O`, the GI50 in test [1] was greater than 10 µM; in test [3] it was greater than 10 µM; in test [4], 3.39 µM; in test [5], greater than 10 µM. Further, the MEC in test [2] and in test [8] was 3.3 µM each time. The values for the EC50 in test [6] and in test [7] were 0.0147 µM and 11 µM, respectively.

In the case of `COC1=C2C[C@@H](C)C[C@H](OC)[C@H](O)[C@@H](C)/C=C(\C)[C@H](OC(N)=O)[C@@H](OC)/C=C\C=C(/C)C(=O)NC(=CC1=O)C2=O` [GELDANAMYCIN], the GI50 was found to be 0.064 µM in test [1], 0.021 µM in test [3], 0.059 µM in test [4] and 0.037 µM in test [5]. Also, the MEC in test [2] is 0.11 µM; in test [8] it was 0.33 µM. The EC50 in test [6] is 0.057 µM.

As for `COc1c2cc(cc1OC(C)=O)NC(=O)/C(C)=C/CC[C@H](OC)[C@@H](OC(N)=O)/C(C)=C/[C@H](C)[C@@H](O)[C@@H](OC)C[C@H](C)C2`, the GI50 in test [1] came out at 3.55 µM; in test [3] it was 0.61 µM; in test [4] it was 0.18 µM; in test [5], 3.52 µM. Also, the MEC was 0.33 µM in test [2] and 0.11 µM in test [8]. The EC50 is 0.0208 µM in test [6] and 0.23 µM in test [7].

Consider `CO[C@H]1C[C@H](C)Cc2cc(cc(O)c2O)NC(=O)/C(C)=C/CC[C@H](OC)[C@@H](OC(N)=O)/C(C)=C/[C@H](C)[C@H]1O`, for which the GI50 in test [1] turned out to be 10.3 µM; in test [3] it was 8.91 µM; in test [4] it was 4.33 µM; in test [5] it was 9.4 µM. Further, the MEC in test [2] and in test [8] was 10 µM throughout. Also, the values for the EC50 in test [6] and in test [7] were 0.006 µM and 21 µM, respectively.

As to `COc1c(O)cc2cc1C[C@@H](C)C[C@H](OC)[C@H](O)[C@@H](C)/C=C(\C)[C@H](OC(N)=O)[C@@H](OC)CC/C=C(\C)C(=O)N2` [REBLASTATIN], the GI50 was 2.72 µM in test [1], 0.5 µM in test [3], 0.45 µM in test [4] and 2.08 µM in test [5]. Also, the MEC in test [2] and in test [8] was 0.33 µM each time. The EC50 in test [6] was 0.0023 µM; in test [7], 0.76 µM.

Regarding `C[C@@H]1C[C@H]2O[C@@H]2/C=C\C=C\C(=O)Cc2c(Cl)c(O)cc(O)c2C(=O)O1` [RADICICOL], the GI50 in test [1] turned out to be 0.11 µM; in test [3], 0.058 µM; in test [5], 0.076 µM. This compound also had an EC50 in test [6] of 0.0008 µM.

For the compound `CO[C@H]1C[C@H](C)Cc2cc(O)cc(c2)NC(=O)/C(C)=C/CC[C@H](OC)[C@@H](OC(N)=O)/C(C)=C/[C@H](C)[C@H]1O`, the GI50 turned out to be 2.73 µM in test [1], 0.78 µM in test [3], 0.73 µM in test [4] and 2.35 µM in test [5]. For the same compound, the MEC in test [2] and in test [8] was 1 µM each time. The EC50 in test [6] is 0.0022 µM; in test [7], 1.9 µM.

For `C=CCNC1=C2C[C@@H](C)C[C@H](OC)[C@H](O)[C@@H](C)/C=C(\C)[C@H](OC(N)=O)[C@@H](OC)/C=C\C=C(/C)C(=O)NC(=CC1=O)C2=O` [TANESPIMYCIN], the MEC in test [2] and in test [8] was 0.03 µM each time. This compound also came in with a GI50 in test [4] of 0.007 µM.
